US5972946A, “Acetamide derivative, process for preparing the same, and a pharmaceutical composition containing the same” (Dainippon Pharmaceutical Co., Ltd., priority 1995, dated 1999)

Legend:
[1] = Light and dark box test (anti-anxiety effect); assay type: in vivo, mouse (Std-ddY, male); conditions: Mus musculus, 0.5 h; oral, 30 min before test; mice; p<0.05 vs vehicle; read-out: Anti-anxiety effect MED (minimum effective dose)
From the text: Experiment 2: Light and dark box test (anti-anxiety effect)
Anti-anxiety effect of test compounds was examined in a box with light and dark compartments according to the method of Crawley, J. and Goodwin, F. K. [cf. Pharmacol. Biochem. Behav. 13, 167-170 (1980)] with slight modification.
Light and dark box test is a useful, simple and handy method for behaviorally and pharmacologically examining anti-anxiety effect of the drugs, by utilizing the habit of rodents such as mice and rats, etc. which prefer to stay in a dark place, and regarding as positive drug effect the increase of the relative stay of the animals in the light compartment which is an uncomfortable place for the animals.
Light and dark box test was carried out using the test box device (35×15×17 cm) which comprises: a light compartment (20×15×17 cm) consisting of transparent acrylic plates and highly illuminated by an incandescent lamp (1,700 lux); a dark compartment (15×15×17 cm) being made of black acrylic plates connected to the light compartment; and at the boundary of compartments, an opening (4.4×5 cm) in which mice can go through freely between two compartments.
Male mice of Std-ddY strain weighing 25-30 g were used in a group of 10. Each trial was started by placing a mouse in the center of the light compartment 30 minutes after oral administration of a test compound, and the time spent by the mouse in the light compartment during a 5 minute observation period was measured, and the rate of the stay of mice in the light compartment to the whole time spent in the experiment was calculated. The increasing rate of the relative stay of the test compound to that of the vehicle control group was yielded, based on the rate of the stay of mice in the light compartment.
The anti-anxiety effect of the test compound was represented by the minimum effectivetive dose (MED) at which the increasing rate of the relative stay was regarded statistically as significant (Williams-Wilcoxon's test, p<0.05).

[2] = molecular target: peripheral (ω3) benzodiazepine (BZ) receptor (Rattus norvegicus, UniProt P16257); assay: BZω3 (peripheral-type) benzodiazepine receptor binding assay
Method: Experiment 1: Central (ω1, ω2) and peripheral (ω3) benzodiazepine (BZ) receptor binding assays
BZω1 and BZω2 receptor binding assays were carried out according to the method of Stephens, D. N. et al. [cf.
Receptor membrane fractions for ω1, ω2 and ω3 were prepared from the cerebellum (ω1), spinal cord (ω1) or kidney (ω3) in 7-8 week old male rats of Wistar strain by the procedure described below.
After the cerebellum or spinal cord was homogenized with 20 volumes of ice-cold 50 mM Tris-citrate buffer (pH 7.1), the homogenate was centrifuged for 15 minutes at 40,000 g. The pellet obtained was washed 4 times by the same procedure, frozen and stored for 24 hours at -60° C. The resulting pellet, after being thawed, washed with the buffer and centrifuged, was suspended in the buffer I for the binding assay (50 mM Tris-HCl buffer containing 120 mM NaCl, 5 mM KCl, 2 mM CaCl2 and 1 mM MgCl2 ; pH 7.4) and the suspension thus obtained (containing 1 g wet tissue/40 ml) was used for the BZω1 and BZω2 receptor binding assays. On the other hand, the kidney was homogenized with 20 volumes of the ice-cold buffer II for the binding assay (50 mM Na--K phosphate buffer containing 100 mM NaCl; pH 7.4), filtered through 4 sheets of gauze, and centrifuged for 20 minutes at 40,000 g. The pellet obtained was suspended in the buffer II and the suspension (containing 1 g wet tissue/100 ml) was used for the binding assay as BZω3 receptor membrane source.
Flumazenil (final concentration: 0.3 nM for (ω1 and 1 nM for ω2) and flunitrazepam (final concentration: 10 μM) were used for the BZω1 or BZω2 receptor binding assays as the isotope-labeled and unlabeled ligands, respectively. For the BZω3 receptor binding assay, [^3 H] 4'-chlorodiazepam (7-chloro-1,3-dihydro-1-methyl-5-(4-chlorophenyl)-2H-1,4-benzodiazepin-2-one) (final concentration: 0.5 nM) and diazepam (final concentration: 100 μM) were used as the isotope-labeled and unlabeled ligands, respectively. Incubation was performed for 30 minutes at 37° C. in the BZω1 or BZω2 receptor binding assays, and for 150 minutes at 0° C. in the BZω3 receptor binding assay. The BZω1 or BZω2 receptor binding assays were carried out in the presence of bicuculline (final concentration: 100 μM).
The binding assay was performed by the following procedure. After adding each test compound at certain known concentrations, a [^3 H] ligand and the buffer I or II to each test tube, each assay was started by addition of membrane preparation (total volume of 1 ml). After incubation, the assay was terminated by filtration with suction through a Whatman GF/B glass fiber filter using a cell harvester (Brandel, USA). The filters were rapidly washed 3 times with 5 ml of ice-cold 50 mM Tris-HCl buffer (pH 7.7) for ω1 and ω2, or the buffer II forω3, and transferred to scintillation vials containing 10 ml liquid scintillation cocktail (ACS-II, Amersham, USA). After a few hours, retained radioactivity was counted by a liquid scintillation spectrometer. Specific binding of [^3 H] ligands was calculated as the difference between amounts of radioactivity bound in the presence and absence of excess unlabeled ligands.

[3] = Isoniazid-induced clonic convulsion test (anti-convulsant effect); assay type: in vivo, mouse (Std-ddY, male); conditions: Mus musculus, 0.5 h; oral, 30 min before isoniazid 200 mg/kg s.c.; mice; read-out: Anti-isoniazid effect ED25 (dose which prolonged the onset time of clonic convulsion by 25%)
From the text: Experiment 3: Isoniazid-induced clonic convulsion test (anti-convulsant effect)
Isoniazid inhibits glutamate decarboxylase which catalyzes GABA synthesis, deases brain GABA levels, and induces clonic convulsion. According to the method of Auta, J. et al. [cf. J. Pharmacol. Exp. Ther. 265, 649-656 (1993)] with slight modification, we examined antagonistic effect of the test compounds on isoniazid-induced clonic convulsion. […] Those are BZ anxiolytics represented by diazepam, neurosteroids such as allopregnanolone, allotetrahydrodeoxycortico-sterone(THDOC) and BZω3 receptor agonists which enhance the synthesis of neurosteroids.
Male mice of Std-ddY strain weighing 22-24 g were used in a group of 6. Thirty minutes after oral administration of the test compounds, mice were injected with isoniazid (200 mg/kg, s.c.), and immediately thereafter, placed individually in acrylic observation cages. The onset time of clonic convulsion was measured (cut-off time: 90 minutes). The latency in the control group was about 40 minutes.
Anti-isoniazid effect of the test compounds was expressed as the dose which prolonged the onset time by 25% compared to that in the vehicle group (ED25). The ED25 value was calculated according to the Litchfield-Wilcoxon's method.

Structure (SMILES)	IC50 [2] [nM]	minimal effective dose [1] [mg/kg]	ED25 [3] [mg/kg]
CCN(CC)C(=O)CNc1nc(-c2ccc(OC)cc2)nc(C)c1C [Example 12]			31.8
CCCN(C(=O)CNc1nc(-c2ccccc2)nc(C)c1C)c1ccccc1 [Example 52, 2-(5,6-Dimethyl-2-phenyl-4-pyrimidinylamino)-N-phenyl-N-propylacetamide]	29.5	0.1	23.5
CCCN(CCC)C(=O)CNc1nc(-c2ccc(F)cc2)nc(C)c1C [Example 4]	4.36		51.2
Cc1nc(-c2ccccc2)nc(NCC(=O)N2C[C@@H](C)O[C@@H](C)C2)c1C [Example 66b, cis-2,6-Dimethyl-4-(5,6-dimethyl-2-phenyl-4-pyrimidinylamino)acetylmorpholine]			72.4
Cc1nc(-c2ccccc2)nc(NCC(=O)N(C)CC(C)C)c1C [Example 21]		0.1	72.1
CCN(C(=O)CNc1nc(-c2ccc([N+](=O)[O-])cc2)nc(C)c1C)c1ccccc1 [Example 50]			27.3
CCN(C(=O)CNc1nc(-c2ccc(OC)cc2)nc(C)c1C)c1ccccc1 [Example 48]			7.67
COc1ccc(-c2nc(C)c(C)c(OCC(=O)N(C)c3ccc(Cl)cc3)n2)cc1 [Example 150]		0.3	
CCCN(C(=O)CNc1nc(-c2ccc(Cl)cc2)nc(C)c1C)c1ccccc1 [Example 53]			11.3
Cc1nc(-c2ccccc2)nc(NCC(=O)N(C)c2cccc(Cl)c2)c1C [Example 31]		0.3	
Cc1nc(-c2ccccc2)nc(NCC(=O)N2CC(C)OC(C)C2)c1C (stereo not drawn) [Example 66a, 2,6-Dimethyl-4-(5,6-dimethyl-2-phenyl-4-pyrimidinylamino)acetylmorpholine]			51.2
C=CCN(C(=O)CNc1nc(-c2ccc(OC)cc2)nc(C)c1C)c1ccccc1 [Example 60]			2.14
CN(C(=O)COc1nc(-c2ccccc2)nc2c1CCCC2)c1cccc(Cl)c1 [Example 187]	9.71		
CN(C(=O)CNc1nc(-c2ccccc2)ncc1N)c1ccccc1 [Example 124, 2-(5-amino-2-phenyl-4-pyrimidinylamino)-N-methyl-N-phenylacetamide]	5.35		
CCCCN(CCCC)C(=O)CNc1nc(-c2ccc(Cl)cc2)nc(C)c1C [Example 15]	3.86		
CCc1c(C)nc(-c2ccccc2)nc1OCC(=O)N(C)c1ccc(Cl)cc1 [Example 156]	4.96		
Cc1nc(-c2ccccc2)nc(NCC(=O)N(CC2CC2)c2ccccc2)c1C [Example 61]	9.8		17.7
Cc1nc(-c2ccccc2)nc(OCC(=O)N(CC2CC2)c2ccccc2)c1C [Example 190, N-cyclopropylmethyl-2-(5,6-dimethyl-2-phenyl-4-pyrimidinyloxy)-N-phenylacetamide]	4		
CCN(CC)C(=O)CNc1nc(-c2ccccc2)nc(C)c1C [Example 9]		0.3	25.5
CCCN(CCC)C(=O)CNc1nc(-c2ccccc2)nc(C)c1CC [Example 83, 2-(5-ethyl-6-methyl-2-phenyl-4-pyrimidinylamino)-N,N-dipropylacetamide]	5.02		70.2
CCCCN(CCCC)C(=O)CNc1nc(-c2ccc(F)cc2)nc(C)c1C [Example 16]	4	0.1	
C=CCN(C(=O)CNc1nc(-c2ccc(Cl)cc2)nc(C)c1C)c1ccccc1 [Example 59]			14.8
CCN(CC)C(=O)CNc1nc(-c2ccc(F)cc2)nc(C)c1C [Example 11]			47.5
CCN(C(=O)CNc1nc(-c2ccccc2)nc(C)c1C)c1ccccc1 [Example 44]	4.98		22.4

Second part, led by results:

IC50 [2] [nM]	Structure (SMILES)	minimal effective dose [1] [mg/kg]	ED25 [3] [mg/kg]
0.97	CCCN(CCC)C(=O)CNc1nc(-c2ccc(Cl)cc2)nc(C)c1C [Example 2, 2-[2-(4-Chlorophenyl)-5,6-dimethyl-4-pyrimidinylamino]-N,N-dipropylacetamide]	0.01	65.6
1.28	CCCN(CCC)C(=O)CNc1nc(-c2ccc(OC)cc2)nc(C)c1C [Example 5]		15.1
1.97	CCCN(CC)C(=O)CNc1nc(-c2ccccc2)nc(C)c1C [Example 17]		45.7
1.93	Cc1nc(-c2ccc(F)cc2)nc(NCC(=O)N(C)c2ccccc2)c1C [Example 25]		62.1
0.16	CCN(C(=O)CNc1nc(-c2ccc(F)cc2)nc(C)c1C)c1ccccc1 [Example 47]		7.62
1.66	Cc1nc(-c2ccccc2)nc(NCC(=O)N2CC(C)CC(C)C2)c1C (stereo not drawn) [Example 65, 3,5-Dimethyl-1-(5,6-dimethyl-2-phenyl-4-pyrimidinylamino)acetylpiperidine]		31.1
0.38	CCCN(CCC)C(=O)COc1nc(-c2ccc(OC)cc2)nc(C)c1C [Example 139]	0.1	
0.87	Cc1nc(-c2ccccc2)nc(N2CCCC2C(=O)N(C)c2ccc(Cl)cc2)c1C (stereo not drawn) [Example 79, N-(4-chlorophenyl)-N-methyl-1-(5,6-dimethyl-2-phenyl-4-pyrimidinyl)-2-pyrrolidinecarboxamide]		43.8
1.62	C=CCN(C(=O)CNc1nc(-c2ccccc2)nc(C)c1C)c1ccccc1 [Example 58]		11.8
0.08	CCCN(CCC)C(=O)COc1nc(-c2ccc([N+](=O)[O-])cc2)nc(C)c1C [Example 142]		
0.79	CCCN(CCC)C(=O)COc1nc(-c2ccccc2)nc(C)c1Cl [Example 167, 2-(5-chloro-6-methyl-2-phenyl-4-pyrimidinyloxy)-N,N-dipropylacetamide]		
2.75	CCCN(CCC)C(=O)C(CO)Nc1nc(-c2ccccc2)nc(C)c1C (stereo not drawn) [Example 69, 3-hydroxy-2-(5,6-dimethyl-2-phenyl-4-pyrimidinylamino)-N,N-dipropylpropanamide]		
0.99	CCCN(CCC)C(=O)COc1nc(-c2ccccc2)nc(C)c1Br [Example 168, 2-(5-bromo-6-methyl-2-phenyl-4-pyrimidinyloxy)-N,N-dipropylacetamide]		
0.58	CCN(C(=O)COc1nc(-c2ccccc2)nc(C)c1C)c1ccccc1 [Example 151]		
3.07	CCCCN(CCCC)C(=O)COc1nc(-c2ccc(F)cc2)nc2c1CCCC2 [Example 134]		
1.9	CCN(CC)C(=O)COc1nc(-c2ccccc2)nc(C)c1C [Example 175]		
0.11	Cc1nc(-c2ccc(C(F)(F)F)cc2)nc(NCC(=O)N(C)c2ccccc2)c1C [Example 27]		
1.21	CN(C(=O)CNc1nc(-c2ccccc2)nc2c1CCCC2)c1ccc(Cl)cc1 [Example 108]		
0.11	CCCN(CCC)C(=O)COc1nc(-c2ccc(C(F)(F)F)cc2)nc(C)c1C [Example 141]		
1.14	Cc1nc(-c2ccccc2)nc(OCC(=O)N(C)c2ccc(Cl)cc2)c1C [Example 149]		
1.12	CCCN(CCC)C(=O)CN(C)c1nc(-c2ccccc2)nc(C)c1C [Example 70, 2-[methyl-(5,6-dimethyl-2-phenyl-4-pyrimidinyl)amino]-N,N-dipropylacetamide]		
3.31	CCCN(CCC)C(=O)CNc1nc(-c2ccccc2)nc2c1CCCC2 [Example 102, 2-(5,6,7,8-tetrahydro-2-phenyl-4-quinazolinylamino)-N,N-dipropylacetamide]		
2.53	COc1ccc(N(C)C(=O)CNc2nc(-c3ccccc3)nc(C)c2C)cc1 [Example 41]		
0.29	CCN(C(=O)COc1nc(-c2ccc([N+](=O)[O-])cc2)nc(C)c1C)c1ccccc1 [Example 164, N-ethyl-2-[5,6-dimethyl-2-(4-nitrophenyl)-4-pyrimidinyloxy]-N-phenylacetamide]		
1.56	Cc1nc(-c2ccccc2)nc(OCC(=O)N2CC(C)OC(C)C2)c1C (stereo not drawn) [Example 171, 2,6-Dimethyl-4-(5,6-dimethyl-2-phenyl-4-pyrimidinyloxy)acetylmorpholine]		76.4
